Source: patent US8247211B2, “Glycopeptide antibiotics” (American Cyanamid Company, priority 2001, dated 2012)
Converted amounts (≈) assume the structure as drawn.

Experiments:
Experiment in all cases: In vitro antibacterial evaluation: minimum inhibitory concentration (MIC), broth dilution method
Assay type in all cases: cell-based
Enterococcus sp. = settings: for MIC Enterococcus faecalis (ATCC 29212): strain ATCC 29212; for MIC Enterococcus faecalis (GC 4552): strain GC 4552
Description: (§1) The minimum inhibitory concentration (MIC), the lowest concentration of the antibiotic which inhibits growth of the test organism, is determined by the broth dilution method using Muller-Hinton II […] (Baltimore Biological Laboratories) following the recommendations of the National Committee for Clinical Laboratory Standards [Methods for dilution antimicrobial susceptibility tests for bacteria that grow aerobically, approved standard M7-A2, National Committee for Clinical Laboratory Standards, Villanova, Pa].
(§2) An inoculum level of 5×10^5 CFU/mL, and a range of antibiotic concentrations (64-0.06 μg/mL) is used. […] The test organisms include a spectrum of Gram-positive bacteria comprised of Staphylococcus sp., Streptococcus sp. and Enterococcus sp. These organisms include recent clinical isolates that are resistant to methicillin, penicillin and/or vancomycin.

Escherichia coli = settings: for MIC Escherichia coli (GC 4559): strain GC 4559; for MIC Escherichia coli (GC 4560): strain GC 4560
Description: as §1, §2

Staphylococcus sp. = settings: for MIC Staphylococcus aureus (ATCC 29213) / MIC Staphylococcus aureus (GC 1131) / MIC Staphylococcus aureus (GC 4535) / MIC Staphylococcus aureus SMITH (GC 4536) / MIC Staphylococcus aureus-SMITH (GC 4536): broth dilution, 18 hours at 35° C.; for MIC Coagulase Negative Staphylococcus (GC 4537): strain GC 4537; for MIC Coagulase Negative Staphylococcus (GC 4538): strain GC 4538; for MIC Coagulase Negative Staphylococcus (GC 4547): strain GC 4547; for MIC Staphylococcus aureus-SMITH (GC 4536): strain SMITH GC 4536
Description: as §1, §2

[1] = Enterococcus faecalis (GC 2242), broth dilution, 18 hours at 35° C.

| MIC Enterococcus faecalis (GC 2242) (Enterococcus sp.; [1]) [µg/mL] | MIC Enterococcus faecalis (ATCC 29212) (Enterococcus sp.) [µg/mL] | MIC Enterococcus faecalis (GC 2242) (Enterococcus sp.; strain GC 2242) [µg/mL] | MIC Enterococcus faecalis (GC 4552) (Enterococcus sp.) [µg/mL] | MIC Escherichia coli (GC 4559) (Escherichia coli) [µg/mL] | MIC Escherichia coli (GC 4560) (Escherichia coli) [µg/mL] | MIC Staphylococcus aureus (ATCC 29213) (Staphylococcus sp.) [µg/mL] | MIC Staphylococcus aureus (GC 1131) (Staphylococcus sp.) [µg/mL] | MIC Staphylococcus aureus (GC 4535) (Staphylococcus sp.) [µg/mL] | MIC Staphylococcus aureus SMITH (GC 4536) (Staphylococcus sp.) [µg/mL] | MIC Coagulase Negative Staphylococcus (GC 4537) (Staphylococcus sp.) [µg/mL] | MIC Coagulase Negative Staphylococcus (GC 4538) (Staphylococcus sp.) [µg/mL] | MIC Coagulase Negative Staphylococcus (GC 4547) (Staphylococcus sp.) [µg/mL] | MIC Staphylococcus aureus-SMITH (GC 4536) (Staphylococcus sp.) [µg/mL] | SMILES |
| --- | --- | --- | --- | --- | --- | --- | --- | --- | --- | --- | --- | --- | --- | --- |
| >64 | >64 | >64 | >64 | >64 | 8 (≈ 5.74 µM) | >64 | >64 | >64 | >64 | >64 | >64 | >64 | >64 | CCCCCC(=O)OCC1OC(N2C(=N)NCC2C(O)C2NC(=O)C(C(O)C3CNC(=N)N3)NC(=O)C(Cc3ccc(OC4OC(CO)C(OC5OC(CO)C(O)C(O)C5O)C(O)C4O)cc3)NC(=O)C(C(C)c3ccccc3)NC(=O)CNC(=O)C(CO)NC2=O)C(O)C(O)C1O (stereo not shown) [Example 95] |
| 16 (≈ 11.5 µM) | 32 (≈ 23 µM) | 16 (≈ 11.5 µM) | 32 (≈ 23 µM) | >64 | 2 (≈ 1.44 µM) | 4 (≈ 2.87 µM) | 4 (≈ 2.87 µM) | 8 (≈ 5.74 µM) | 4 (≈ 2.87 µM) | 8 (≈ 5.74 µM) | 4 (≈ 2.87 µM) | 4 (≈ 2.87 µM) | 4 (≈ 2.87 µM) | CCCCCC(=O)OCC1OC(Oc2ccc(CC3NC(=O)C(C(C)c4ccccc4)NC(=O)CNC(=O)C(CO)NC(=O)C(C(O)C4CNC(=N)N4C4OC(CO)C(O)C(O)C4O)NC(=O)C(C(O)C4CNC(=N)N4)NC3=O)cc2)C(O)C(O)C1OC1OC(CO)C(O)C(O)C1O (stereo not drawn) [Example 95a, Cyclo[glycyl-β-methylphenylalanyl-O-(6-O-hexanoyl-4-O-hexopyranosylhexopyranosyl)-tyrosyl-3-(2-iminoimidazolidin-4-yl)seryl-3-(3-hexopyranosyl-2-iminoimidazolidin-4-yl)-serylseryl]] |
